Consider four compounds from ChEMBL document CHEMBL1201862, “PubChem BioAssay data set” (2004).

Among the test systems are NCI-H226; OVCAR-3; SNB-75; RXF 393; SF-295; M14; RPMI-8226; KM12; UO-31; NCI-H522; SK-OV-3; 786-0; UACC-257; HCT-116; HCC 2998; U-251; SNB-19; CCRF-CEM; HT-29; SF-539.
What all share (assay): NCI-60 cell line screen, 48 h

The structures appear in SMILES notation.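 Step 1: Grow cells in 96-well plates. Step 2: Expose to compound for 48 hours at 5 concentrations. Step 3: Interpolate endpoints linearly; if unreached, use highest concentration. Abbreviation: GI50, concentration required for 50% inhibition of growth.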 Calls of active or inactive are those of the source. No stated cut-off is given here; in the data, active = GI50 up to about 1.1 µM and inactive = higher.

As for `Brc1ccc2c(c1)-c1nc3c(cc1CC2)CCc1ccc(Br)cc1-3`, the GI50 in the experiment with NCI-H226, in the experiment on OVCAR-3, in the experiment on SNB-75, with RXF 393, with SF-295 and with M14 was > 100 µM (inactive) each time. The GI50 in the experiment with RPMI-8226 was 0.637 µM (active); in the experiment on KM12 it was > 100 µM (inactive); in the experiment with UO-31 it was > 100 µM (inactive); in the experiment with NCI-H522 it was > 100 µM (inactive); in the experiment with SK-OV-3, > 100 µM (inactive); in the experiment on 786-0, > 100 µM (inactive). In addition, the GI50 in the experiment with UACC-257, in the experiment with HCT-116, in the experiment with HCC 2998, with U-251, with SNB-19 and in the experiment on CCRF-CEM was > 100 µM (inactive) throughout.
Turning to `O=c1c2sc3ccccc3sc=2c(=O)c2c(Cl)c(Cl)c(Cl)c(Cl)c12`, the GI50 in the experiment on NCI-H226, in the experiment with OVCAR-3, in the experiment on SNB-75, with RXF 393, in the experiment with SF-295 and in the experiment with M14 was > 100 µM (inactive) in each case. Also, the GI50 was 42 µM (inactive) with RPMI-8226; > 100 µM (inactive) with KM12; > 100 µM (inactive) in the experiment on UO-31; > 100 µM (inactive) with NCI-H522; > 100 µM (inactive) in the experiment with SK-OV-3; > 100 µM (inactive) with 786-0. The GI50 in the experiment on UACC-257 was > 100 µM (inactive); in the experiment on HCT-116 it was > 100 µM (inactive); in the experiment with HCC 2998, 96.2 µM (inactive); in the experiment with U-251, > 100 µM (inactive); in the experiment with SNB-19 it was > 100 µM (inactive); with HT-29, > 100 µM (inactive). Further, the GI50 with CCRF-CEM was > 100 µM (inactive).
For `COc1ccc2nc3cc(Cl)ccc3c(NCCCNCc3cc(OC)c(OC)c(OC)c3)c2c1`, the GI50 in the experiment on SF-539 is 1.87 µM (inactive); in the experiment with NCI-H226 it was 1.67 µM (inactive); in the experiment with OVCAR-3, 1.83 µM (inactive); in the experiment with RXF 393 it was 1.46 µM (inactive); in the experiment on SF-295, 1.51 µM (inactive); with M14, 1.65 µM (inactive). Moreover, the GI50 in the experiment on RPMI-8226 was 1.53 µM (inactive); in the experiment with KM12, 1.64 µM (inactive); in the experiment on UO-31, 1.65 µM (inactive); with NCI-H522 it was 1.5 µM (inactive); in the experiment on SK-OV-3 it was 1.81 µM (inactive); in the experiment on 786-0 it was 1.4 µM (inactive). In addition, the GI50 is 1.94 µM (inactive) in the experiment with UACC-257; 1.24 µM (inactive) with HCT-116; 1.75 µM (inactive) with HCC 2998; 1.76 µM (inactive) in the experiment on U-251; 1.83 µM (inactive) in the experiment with SNB-19; 1.01 µM (active) in the experiment with HT-29. In the experiment with CCRF-CEM, the GI50 was 0.865 µM (active).
Consider `O=c1c2cc(I)ccc2nc(-c2cccs2)n1-c1ccc(O)cc1`, for which the GI50 was < 0.01 µM (active) with SF-539; 14.4 µM (inactive) with NCI-H226; 9.51 µM (inactive) in the experiment with OVCAR-3; 14.8 µM (inactive) in the experiment on RXF 393; 12.6 µM (inactive) in the experiment with SF-295; 15.8 µM (inactive) with M14. Further, the GI50 in the experiment with RPMI-8226 is 3.37 µM (inactive); with KM12 it was 11.2 µM (inactive); in the experiment with UO-31, 10.4 µM (inactive); with NCI-H522, 13.1 µM (inactive); in the experiment with 786-0 it was 16.3 µM (inactive); with UACC-257, < 0.01 µM (active). In addition, the GI50 in the experiment on HCT-116 is 14.3 µM (inactive); in the experiment with HCC 2998, 16.1 µM (inactive); in the experiment on U-251, 17.9 µM (inactive); in the experiment with SNB-19, 16.6 µM (inactive); in the experiment with HT-29 it was 13 µM (inactive).
